US20260317319A1, “NOVEL ERGOLINES AND METHODS OF TREATING MOOD DISORDERS” (Gilgamesh Pharma Inc., priority 2023, published 2026)
“Also recorded” adds a separate entry of the source.

Assays:
C57BL/6 mice = test: Mouse head twitch response (HTR) assay (observer-counted); assay type: in vivo; conditions: for efficacy in HTR assay: maximal effect
Method: Agonists of the 5-HT2A receptor are well known to induce this effect in rodents and the potency of this HTR is correlated with hallucinogenic potency in humans.
Animals. Adult male C57BL/6 mice, aged 6-8 weeks (body weight 20-25 g) were used in this experiment. Animals were housed under controlled temperatures and 12-hour light/dark cycles (lights on between 07:00-19:00 h), with ad libitum food and water. This study was carried out in strict accordance with the requirements of the Committee for the Purpose of Control and Supervision of Experiments on Animals (CPCSEA), India. All efforts were made to minimize suffering.
Procedure. Mice were administered one dose of the drug and immediately placed into a small open field for behavioral observation. Animals were observed continuously for 20 mins and the number of head twitches (HTs) were counted by an observer blind to the treatment condition.
Statistical Analysis. The data points shown are the mean±standard error of the mean (SEM). Analysis was performed using GraphPad Prism 6. Curves were fit using a non-linear gaussian distribution to calculate ED50 and Emax values.
Additional disclosed compounds were tested in the mouse head twitch response (HTR) assay according to the procedure described in Example 57 (administered SC). […] Lastly, compounds with much larger benzyl and phenethyl substituents on the amine nitrogen (e.g., 10 and 11) were low efficacy in this assay, consistent with their bias toward arrestin signaling (see Example 55).

D2 dopamine receptor = target: T1, D2 dopamine receptor (Homo sapiens, UniProt P14416); test: Ca2+ flux functional assay at D2; assay type: cell-based; conditions: for Emax: agonist, Ca2+ flux, max dose, read-out: D2 % Act @ Max Dose; for maximal efficacy at D2: compared to the N-methyl compound LSD
T1 construct: expressed in transfected cells
Method: (§1) Disclosed compounds were tested for agonist activity at several adrenergic (Alpha1A and Alpha2A) and dopamine (D1 and D2) receptor subtypes using Ca^2+ flux functional assays, with the results summarized in Table 6. Selectivity for the 5-HT2A receptor over these other targets varied depending on the specific target and compound.
(§2) Functional Assays at Adrenergic and Dopamine Receptors. Agonist activity at Alpha1A, Alpha2A, D1, and D2 receptors was determined using a FLIPR Ca^2+ flux assay at WuXi AppTec (Hong Kong) Limited according to their standard protocols. Briefly, stably transfected cells expressing the receptor of interest were grown and plated in a 384 well plate and incubated at 37° C. and 5% CO2 overnight. A solution of 250 mM probenecid in 1 mL FLIPR assay buffer was prepared fresh. This was combined with a fluorescent dye (Fluo-4 Direct™) to make a final assay concentration of 2.5 mM. Compounds were diluted 1:3.16 for 10 points and 750 nL was added to a 384 well compound plate using ECHO along with 30 μL assay buffer. The fluorescent dye was then added to the assay plate along with assay buffer to a final volume of 40 μL. The cell plate was incubated for 50 min at 37° C. and 5% CO2 and placed into the FLIPR Tetra along with the compound plate. 10 μL of references and compounds were then transferred from the compound plate into the cell plate and the fluorescent signal was read.

D1 dopamine receptor = target: T2, D1 dopamine receptor (Homo sapiens, UniProt P21728); test: Ca2+ flux functional assay at D1; assay type: cell-based; conditions: agonist, max dose, read-out: D1 % Act @ Max Dose
T2 construct: expressed in transfected cells
Method: as §1, §2

5-HT2C receptor = target: T3, 5-HT2C receptor (Homo sapiens, UniProt P28335); test: Ca2+ flux functional assay at 5-HT2C (WuXi 5-HT2C protocol); assay type: cell-based; design: expressed in transfected cells; conditions: for Emax: agonist, tested using WuXi 5-HT2C protocol, max dose, read-out: 5-HT2C % Act @ Max Dose (* WuXi protocol)
T3 sequence (P28335 33-458): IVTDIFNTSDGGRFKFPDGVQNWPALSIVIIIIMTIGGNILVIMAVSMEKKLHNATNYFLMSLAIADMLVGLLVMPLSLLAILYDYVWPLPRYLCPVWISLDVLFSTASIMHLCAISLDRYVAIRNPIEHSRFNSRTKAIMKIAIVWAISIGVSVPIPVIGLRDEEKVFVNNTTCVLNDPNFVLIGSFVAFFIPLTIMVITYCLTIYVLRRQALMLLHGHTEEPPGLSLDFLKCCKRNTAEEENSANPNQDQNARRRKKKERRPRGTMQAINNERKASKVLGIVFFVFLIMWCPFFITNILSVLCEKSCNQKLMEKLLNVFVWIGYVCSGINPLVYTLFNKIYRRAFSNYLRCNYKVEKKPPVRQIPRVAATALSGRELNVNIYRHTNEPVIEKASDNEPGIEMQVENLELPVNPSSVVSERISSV
Method: Disclosed compounds were tested for agonist activity at several serotonin receptor subtypes (5-HT2A, […], 5-HT2C, and 5-HT1A) using Ca^2+ flux functional assays and the 5-HT1B receptor using a cAMP accumulation assay, with the results summarized in Table 4. […] Potent agonist activity was also observed at the other serotonin receptors tested, although the selectivity profile among the receptors varied across compounds. […] However, at the same time, the N-propyl compounds were more efficacious agonists at 5-HT2B than the corresponding N-methyl compounds. The selectivity of disclosed compounds for 5-HT2A over 5-HT2C and 5-HT1A was less predictable and varied widely across compounds. […] An azetidinyl amide substituent tended to increase potency at 5-HT1A relative to 5-HT2A.
as §2, with “5-HT2A, 5-HT2B,” for “Adrenergic”, “5-HT1A.” for “Dopamine Receptors.”, “5-HT2A, 5-HT2B, 5HT2C” for “Alpha1A, Alpha2A, D1,”, “5-HT1A” for “D2”, “interest and Gα15 in the case of 5-HT1A (HEK293 for 5-HT2A and 5-HT2B; CHO cells for 5-HT1A)” for “interest”

T2 sequence (P21728 whole entry): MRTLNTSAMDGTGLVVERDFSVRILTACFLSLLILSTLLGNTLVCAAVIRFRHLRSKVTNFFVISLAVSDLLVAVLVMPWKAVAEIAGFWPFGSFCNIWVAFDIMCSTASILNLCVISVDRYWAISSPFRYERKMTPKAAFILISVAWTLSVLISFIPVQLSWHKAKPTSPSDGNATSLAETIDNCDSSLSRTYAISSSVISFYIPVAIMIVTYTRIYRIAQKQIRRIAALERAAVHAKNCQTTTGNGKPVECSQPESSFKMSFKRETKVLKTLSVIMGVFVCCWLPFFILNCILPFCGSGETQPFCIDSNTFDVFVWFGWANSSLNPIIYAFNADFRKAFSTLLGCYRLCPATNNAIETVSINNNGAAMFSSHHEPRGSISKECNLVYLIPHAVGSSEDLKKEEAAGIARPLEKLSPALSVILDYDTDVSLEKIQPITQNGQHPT
T1 sequence (P14416 whole entry): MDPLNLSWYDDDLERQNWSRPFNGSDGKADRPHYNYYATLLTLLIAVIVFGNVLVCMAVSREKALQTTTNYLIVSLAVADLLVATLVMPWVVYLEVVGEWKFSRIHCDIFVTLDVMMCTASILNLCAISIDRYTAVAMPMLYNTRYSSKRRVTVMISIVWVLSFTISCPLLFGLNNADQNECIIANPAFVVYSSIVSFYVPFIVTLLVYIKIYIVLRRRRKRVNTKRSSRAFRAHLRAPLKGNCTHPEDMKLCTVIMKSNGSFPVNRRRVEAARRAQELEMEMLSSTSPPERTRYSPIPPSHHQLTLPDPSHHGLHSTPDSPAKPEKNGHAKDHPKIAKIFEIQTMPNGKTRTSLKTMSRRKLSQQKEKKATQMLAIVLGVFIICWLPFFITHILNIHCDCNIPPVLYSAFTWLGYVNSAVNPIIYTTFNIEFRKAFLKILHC

Structure (SMILES)	HTR at most efficacious dose (bound) (C57BL/6 mice; SC, 20 min) [HTR]	Emax (D2 dopamine receptor) [%]	Emax (D1 dopamine receptor) [%]	EC50 (5-HT2C receptor) [µM]	Emax (5-HT2C receptor) [%]	further results
CCCN1C[C@H](C(=O)N(CC)CC)C=C2c3cccc4[nH]cc(c34)C[C@H]21 [Compound 1, (6aR,9R)—N,N-diethyl-7-propyl-4,6,6a,7,8,9-hexahydroindolo[4,3-fg]quinoline-9-carboxamide]	> 15	94.5	109	–	–	head twitch response (C57BL/6 mice; 20 min observation, FIG. 1): robust and dose-dependent HTR; maximal efficacy at D2 (D2 dopamine receptor): substantially higher maximal efficacy
CCN(CC)C(=O)[C@@H]1C=C2c3cccc4[nH]cc(c34)C[C@H]2N(CCCF)C1 [Compound 2, (6aR,9R)—N,N-diethyl-7-(3-fluoropropyl)-4,6,6a,7,8,9-hexahydroindolo[4,3-fg]quinoline-9-carboxamide]	> 15	91.2	114	–	–	maximal efficacy at D2 (D2 dopamine receptor): substantially higher maximal efficacy
CCCN1C[C@H](C(=O)N[C@H](C)CC)C=C2c3cccc4[nH]cc(c34)C[C@H]21 [Compound 3, (6aR,9R)—N—((R)-sec-butyl)-7-propyl-4,6,6a,7,8,9-hexahydroindolo[4,3-fg]quinoline-9-carboxamide]	> 15	117	121	–	–	# HTR/20 min at Most Efficacious Dose (C57BL/6 mice; SC, most efficacious dose 0.32 mg/kg): 27.0 HTR/20 min; maximal efficacy at D2 (D2 dopamine receptor): substantially higher maximal efficacy
CCCN1C[C@H](C(=O)N2[C@@H](C)C[C@@H]2C)C=C2c3cccc4[nH]cc(c34)C[C@H]21 [Compound 4, ((2S,4S)-2,4-dimethylazetidin-1-yl)((6aR,9R)-7-propyl-4,6,6a,7,8,9-hexahydroindolo[4,3-fg]quinolin-9-yl)methanone]	–	117	114	–	–	efficacy in HTR assay (C57BL/6 mice; SC): less efficacious than its N-methyl counterpart compound Int11; also recorded: lower efficacy than analogous compounds bearing other amide substituents; maximal efficacy at D2 (D2 dopamine receptor): substantially higher maximal efficacy
CCCN1C[C@H](C(=O)NC(CC)CC)C=C2c3cccc4[nH]cc(c34)C[C@H]21 [Compound 6, (6aR,9R)—N-(pentan-3-yl)-7-propyl-4,6,6a,7,8,9-hexahydroindolo[4,3-fg]quinoline-9-carboxamide]	> 15	91.7	93.1	–	–	maximal efficacy at D2 (D2 dopamine receptor): substantially higher maximal efficacy
C=CCN1C[C@H](C(=O)N[C@H](C)CC)C=C2c3cccc4[nH]cc(c34)C[C@H]21 [Compound 8, (6aR,9R)-7-allyl-N—((R)-sec-butyl)-4,6,6a,7,8,9-hexahydroindolo[4,3-fg]quinoline-9-carboxamide]	> 15	–	–	–	–	–
CCN(CC)C(=O)[C@@H]1C=C2c3cccc4[nH]cc(c34)C[C@H]2N(CCc2ccccc2OC)C1 [Compound 11, (6aR,9R)—N,N-diethyl-7-(2-methoxyphenethyl)-4,6,6,7,8,9-hexahydroindolo[4,3-fg]quinoline-9-carboxamide]	–	–	–	–	–	ED50 (HTR) (C57BL/6 mice; SC, 20 min, curve fit poor in some cases): 2.205 mg/kg; Emax, HTR/20 min (C57BL/6 mice; SC, curve fit poor in some cases): 19.79 HTR/20 min; efficacy in HTR assay (C57BL/6 mice; SC): low efficacy; # HTR/20 min at Most Efficacious Dose (C57BL/6 mice; SC, most efficacious dose 3.2 mg/kg): 12.0 HTR/20 min
CCN(CC)C(=O)[C@@H]1C=C2c3cccc4[nH]cc(c34)C[C@H]2N(Cc2ccc(F)cc2)C1 [Compound 49, (6aR,9R)—N,N-diethyl-7-(4-fluorobenzyl)-4,6,6a,7,8,9-hexahydroindolo[4,3-fg]quinoline-9-carboxamide]	–	–	–	> 10	1.32	–
CCN(CC)C(=O)[C@@H]1C=C2c3cccc4[nH]cc(c34)C[C@H]2N(Cc2ccc(Cl)cc2)C1 [Compound 50, (6aR,9R)-7-(4-chlorobenzyl)-N,N-diethyl-4,6,6a,7,8,9-hexahydroindolo[4,3-fg]quinoline-9-carboxamide]	–	–	–	> 10	1.08	–
CCN(CC)C(=O)[C@@H]1C=C2c3cccc4[nH]cc(c34)C[C@H]2N(Cc2cccc(O)c2)C1 [Compound 62, (6aR,9R)—N,N-diethyl-7-(3-hydroxybenzyl)-4,6,6a,7,8,9-hexahydroindolo[4,3-fg]quinoline-9-carboxamide]	–	–	–	> 10	20.3	–
CCN(CC)C(=O)[C@@H]1C=C2c3cccc4[nH]cc(c34)C[C@H]2N(Cc2ccon2)C1 [Compound 70, (6aR,9R)—N,N-diethyl-7-(isoxazol-3-ylmethyl)-4,6,6a,7,8,9-hexahydroindolo[4,3-fg]quinoline-9-carboxamide]	–	–	–	> 10	23.9	–
CCN(CC)C(=O)[C@@H]1C=C2c3cccc4[nH]cc(c34)C[C@H]2N(Cc2cocn2)C1 [Compound 73, (6aR,9R)—N,N-diethyl-7-(oxazol-4-ylmethyl)-4,6,6a,7,8,9-hexahydroindolo[4,3-fg]quinoline-9-carboxamide]	–	–	–	1.72	74	–
CCN(CC)C(=O)[C@@H]1C=C2c3cccc4[nH]cc(c34)C[C@H]2N(Cc2cccc(C#N)c2)C1 [Compound 76, (6aR,9R)—N,N-diethyl-7-(3-cyanobenzyl)-4,6,6a,7,8,9-hexahydroindolo[4,3-fg]quinoline-9-carboxamide]	–	–	–	> 10	0.14	–
CCN(CC)C(=O)[C@@H]1C=C2c3cccc4[nH]cc(c34)C[C@H]2N(Cc2ccccc2)C1 [Compound 82, (6aR,9R)-7-benzyl-N,N-diethyl-4,6,6a,7,8,9-hexahydroindolo[4,3-fg]quinoline-9-carboxamide]	–	–	–	> 10	15.6	–
CCN(C)C(=O)[C@@H]1C=C2c3cccc4[nH]cc(c34)C[C@H]2N(Cc2ccccc2)C1 [Compound 85, (6aR,9R)-7-benzyl-N-ethyl-N-methyl-4,6,6a,7,8,9-hexahydroindolo[4,3-fg]quinoline-9-carboxamide]	–	–	–	> 10	16.3	–
CC[C@@H](C)NC(=O)[C@@H]1C=C2c3cccc4[nH]cc(c34)C[C@H]2N(C)C1 [Int8]	< 15	–	–	–	–	–
CCN(CC)C(=O)[C@@H]1C=C2c3cccc4[nH]cc(c34)C[C@H]2N(C)C1 [LSD, lysergic acid diethylamide, reference compound]	–	78.3	94.9	–	–	–
